≈ marks a conversion by molar mass, not a printed value. Where two headings read alike, the source gives them in different places. Each block holds one compound with its values, some of them ahead of it.
What was measured:
[1] = Solubility experiment (HPLC, external standard); type: physicochemical; conditions: 37 °C, 24 h; for solubility at 24 h: ph 7.4 medium, pH 7.4, pH 7.4 medium; for Solubility at pH 7.4 (µg/mL): pH 7.4 medium
Procedure: This experiment was intended to determine the solubility of the compounds in media at different pH values. The materials used in the experiment included: a pH 1.2 medium, a pH 4.5 medium, a pH 7.4 medium, and a diluent (acetonitrile/water = 50/50). 1. The preparation methods for media are as follows:
One centrifuge tube (containing about 2 mg of the test sample) was taken, 1 mL of DMSO was added to completely dissolve the test sample, and the mixture was marked as stock-1. 0.2 mL of stock-1 was transferred into a 10 mL volumetric flask, and then the 50:50 (acetonitrile/water) solution was added to bring the volume to the mark, so as to give a control solution.
Additionally, centrifuge tubes each containing about 1 mg of the test sample were taken, 1 mL of the corresponding medium solution was then added, and the tubes were shaken on a 37 °C water bath shaker for 24 h. After centrifugation for 3 times (centrifugation time: 10 min, rotation speed: 12000 rpm), 0.2 mL of the supernatants were taken, 0.8 mL of the diluent (acetonitrile/water = 50/50) was added to each tube, and the mixtures were vortexed and mixed well to give solubility samples.
The solubility samples described above and the control solution were sequentially analyzed by high performance liquid chromatography. The chromatographic conditions are as follows:
The actual concentration of the compound in each solubility sample was calculated according to an external standard method. Concentration (μg/mL) = (ASample × CControl × DSample)/(AControl)∗1000; [formula] Asample: the peak area of the target peak in the sample solution; Ccontrol: the concentration (mg/mL) of the control solution; Dsample: the dilution factor of the sample solution; Acontrol: the peak area of the target peak in the control solution.

AsPC-1 cells = experiment: 3D cell proliferation assay (CellTiter Glo-3D), AsPC-1; type: cell-based, human; conditions: AsPC-1 cells (KRAS G12D), 3D, 2% FBS, 5 days, read-out: AsPC-1 AP IC50
In short: (§1)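 IC50 values come from four-parameter fits of inhibition rate against log compound concentration, using CellTiter-Glo luminescence read after 5 days' exposure. AsPC-1 and NCI-H441 were plated at 800 cells per well in low-serum (2% FBS) medium. Compound was dosed the day after seeding, with incubation at 37 °C, 5% CO2.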

NCI-H441 cells = experiment: 3D cell proliferation assay (CellTiter Glo-3D), NCI-H441; type: cell-based, human; conditions: NCI-H441 cells (KRAS G12V), 2% FBS, 5 days, read-out: H441 AP IC50
In short: as §1

H441 p-ERK = experiment: Cell p-ERK assay (HTRF), NCI-H441 cells; type: cell-based, human; conditions: NCI-H441 cells (KRAS G12V), 3 h incubation
In short: (§2)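 Phospho-ERK (T202/Y204) was measured by HTRF in lysates after 3 h compound treatment at 37 °C. Cells had been plated the previous day at 20000 per well for NCI-H441 and 10000 per well for AsPC-1. Four-parameter dose-response fitting of % inhibition gave IC50 values.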

KRAS WT-cRAF = KRAS WT-cRAF (Homo sapiens, UniProt P01116+P62937); experiment: Assay for binding of KRAS to cRAF (HTRF, with Cyclophilin A), KRAS WT
Procedure: (§3) The plate was centrifuged at 1000 rpm for 1 min and then incubated in the thermostatic incubator at 20 °C for 30 min. […] The plate was centrifuged at 1000 rpm for 1 min and then incubated in the thermostatic incubator at 20 °C for 60 min. […] The working solution was added to the aforementioned assay plate at 5 µL/well. The plate was centrifuged at 1000 rpm for 1 min and then incubated in the thermostatic incubator at 20 °C for 60 min.

AsPC-1 p-ERK = experiment: Cell p-ERK assay (HTRF), AsPC-1 cells; type: cell-based, human; conditions: AsPC-1 cells (KRAS G12D), 3 h incubation, read-out: AsPC-1 p-ERK IC50
In short: as §2

KRAS G12V-cRAF = KRAS G12V-cRAF (Homo sapiens, UniProt P01116+P62937, G12V); experiment: Assay for binding of KRAS to cRAF (HTRF, with Cyclophilin A), KRAS G12V
Procedure: as §3

[2] = KRAS WT-cRAF binding assay(nM), GPPNP-KRAS WT, IC50 values
[3] = KRAS G12V-cRAF binding assay(nM), GPPNP-KRAS G12V, IC50 values

Chain of KRAS WT-cRAF (P01116 1-188 isoform P01116-2): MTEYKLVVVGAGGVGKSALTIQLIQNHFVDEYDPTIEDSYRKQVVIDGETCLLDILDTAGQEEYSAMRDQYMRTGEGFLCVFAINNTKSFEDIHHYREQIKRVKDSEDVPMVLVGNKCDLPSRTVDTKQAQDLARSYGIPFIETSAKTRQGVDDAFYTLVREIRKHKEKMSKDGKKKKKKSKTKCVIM
Chain of KRAS WT-cRAF (P62937 whole entry): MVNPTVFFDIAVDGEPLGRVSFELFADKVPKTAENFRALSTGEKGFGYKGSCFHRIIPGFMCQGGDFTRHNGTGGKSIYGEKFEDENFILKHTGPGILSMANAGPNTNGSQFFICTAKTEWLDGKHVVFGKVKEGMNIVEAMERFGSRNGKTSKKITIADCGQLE
Chain of KRAS G12V-cRAF (P01116 1-188 isoform P01116-2 G12V): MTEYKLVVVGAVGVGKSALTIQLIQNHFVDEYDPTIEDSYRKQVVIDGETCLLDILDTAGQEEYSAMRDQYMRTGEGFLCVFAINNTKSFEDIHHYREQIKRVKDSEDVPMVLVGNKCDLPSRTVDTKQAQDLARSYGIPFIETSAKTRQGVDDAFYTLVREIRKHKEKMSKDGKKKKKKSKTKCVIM
Chain of KRAS G12V-cRAF (P62937 whole entry): as the sequence (P62937 whole entry) above

SMILES: COCCn1c(-c2cc(C#CCN3CCN(C(=O)CO)CC3)cnc2[C@H](C)OC)c2c3cc(ccc31)-c1csc(n1)C[C@H](NC(=O)[C@H]1[C@@H]3COC[C@@H]31)C(=O)N1CCC[C@H](N1)C(=O)OCC(C)(C)C2 (atropisomer, axis not shown; (Sa)) [Compound Z31-2, (1R,5S,6r)-N-((6^3S,4S,Z)-(Sa)-1^2-(5-(3-(4-(2-hydroxyacetyl)piperazin-1-yl)prop-1-yn-1-yl)-2-((S)-1-methoxyethyl)pyridin-3-yl)-1^1-(methoxyethyl)-10,10-dimethyl-5,7-dioxo-6^1,6^2,6^3,6^4,6^5,6^6-hexahydro-1^1H-8-oxa-2(4,2)-thiazola-1(5,3)-indola-6(1,3)-pyridazinacycloundecaphane-4-yl)-3-oxabicyclo[3.1.0]hexane-6-carboxamide]
solubility at 24 h [1]: 22 µg/mL (≈ 23.1 µM)

SMILES: COCCn1c(-c2cc(C#CCN3CCN(C(=O)CO)CC3)cnc2[C@H](C)OC)c2c3cc(ccc31)-c1csc(n1)C[C@H](NC(=O)[C@H]1[C@H](C)[C@@H]1C)C(=O)N1CCC[C@H](N1)C(=O)OCC(C)(C)C2 (atropisomer, axis not shown; (Sa)) [Compound Z63-2, (2R,3S)-N-((6^3S,4S,Z)-1^2-(5-(3-(4-(2-hydroxyacetyl)piperazin-1-yl)prop-1-yn-1-yl)-(Sa)-2-((S)-1-methoxyethyl)pyridin-3-yl)-1^1-(2-methoxyethyl)-10,10-dimethyl-5,7-dioxo-6^1,6^2,6^3,6^4,6^5,6^6-hexahydro-1^1H-8-oxa-2(4,2)-thiazola-1(5,3)-indola-6(1,3)-pyridazinacycloundecaphane-4-yl)-2,3-dimethylcyclopropane-1-carboxamide]
Solubility at pH 7.4 (µg/mL) ([1]; 1440 min): 15.37 µg/mL

SMILES: CCn1c(-c2cc(C#CCN3CCC(C#N)(CO)CC3)c[n+]([O-])c2[C@H](C)OC)c2c3cc(ccc31)-c1csc(n1)C[C@H](NC(=O)[C@H]1[C@H](C)[C@@H]1C)C(=O)N1CCC[C@H](N1)C(=O)OCC(C)(C)C2 (atropisomer, axis not shown; (Sa)) [Compound Z45-2, 5-(3-(4-cyano-4-(hydroxymethyl)piperidin-1-yl)prop-1-yn-1-yl)-(Sa)-3-((6^3S,4S,Z)-4-((1r,2R,3S)-2,3-dimethylcyclopropane-1-carboxamido)-1^1-ethyl-10,10-dimethyl-5,7-dioxo-6^1,6^2,6^3,6^4,6^5,6^6-hexahydro-1^1H-8-oxa-2(4,2)-thiazola-1(5,3)-indola-6(1,3)-pyridazinacycloundecaphane-1^2-yl)-2-((S)-1-methoxyethyl)pyridine 1-oxide]
Solubility at pH 7.4 (µg/mL) ([1]; 1440 min): 8.42 µg/mL

SMILES: COCCn1c(-c2cc(C#CCN3CCN(C(=O)CO)CC3)c[n+]([O-])c2[C@H](C)OC)c2c3cc(ccc31)-c1csc(n1)C[C@H](NC(=O)[C@H]1[C@@H]3COC[C@@H]31)C(=O)N1CCC[C@H](N1)C(=O)OCC(C)(C)C2 (atropisomer, axis not shown; (Sa)) [Compound Z38-2, (Sa)-3-((6^3S,4S,Z)-4-((1R,5S,6r)-3-oxabicyclo[3.1.0]hexane-6-carboxamido)-1^1-(2-methoxyethyl)-10,10-dimethyl-5,7-dioxo-6^1,6^2,6^3,6^4,6^5,6^6-hexahydro-11H-8-oxa-2(4,2)-thiazola-1(5,3)-indola-6(1,3)-pyridazinacycloundecaphane-1^2-yl)-5-(3-(4-(2-hydroxyacetyl)piperazin-1-yl)prop-1-yn-1-yl)-2-((S)-1-methoxyethyl)pyridine-1-oxide]
solubility at 24 h [1]: 176 µg/mL (≈ 182 µM)

SMILES: CCn1c(-c2cc(C#CCN3CCC(C#N)(CN)CC3)c[n+]([O-])c2[C@H](C)OC)c2c3cc(ccc31)-c1csc(n1)C[C@H](NC(=O)[C@H]1[C@@H]3COC[C@@H]31)C(=O)N1CCC[C@H](N1)C(=O)OCC(C)(C)C2 (atropisomer, axis not shown; (Ra)) [Compound Z64-1, (Ra)-3-((6^3S,4S,Z)-4-((1R,5S,6r)-3-oxabicyclo[3.1.0]hexane-6-carboxamido)-1^1-ethyl-10,10-dimethyl-5,7-dioxo-6^1,6^2,6^3,6^4,6^5,6^6-hexahydro-1^1H-8-oxa-2(4,2)-thiazola-1(5,3)-indola-6(1,3)-pyridazinacycloundecaphane-1^2-yl)-5-(3-(4-(aminomethyl)-4-cyanopiperidin-1-yl)prop-1-yn-1-yl)-2-((S)-1-methoxyethyl)pyridine 1-oxide]
IC50 (AsPC-1 cells): 3.77 nM
IC50 (NCI-H441 cells): 5.1 nM
IC50 (H441 p-ERK): 5.07 nM
IC50 (KRAS WT-cRAF; read-out: KRAS WT-cRAF binding assay, GPPNP-KRAS WT, IC50 values): 31.2 nM
IC50 (AsPC-1 p-ERK): 9.07 nM
IC50 (KRAS G12V-cRAF; read-out: KRAS G12V-cRAF binding assay, GPPNP-KRAS G12V, IC50 values): 4.1 nM

Continued, values first:

IC50 (AsPC-1 cells; Homo sapiens, ASPC1, 120 h): 0.09 nM
IC50 (NCI-H441 cells; Homo sapiens, 120 h): 0.21 nM
IC50 (H441 p-ERK; Homo sapiens): 0.38 nM
IC50 (KRAS WT-cRAF; [2]): 37 nM
IC50 (AsPC-1 p-ERK; Homo sapiens, ASPC1): 0.07 nM
IC50 (KRAS G12V-cRAF; [3]): 18.5 nM
SMILES: COCCn1c(-c2cc(C#CCN3CCC(C#N)(CO)CC3)cnc2C(C)OC)c2c3cc(ccc31)-c1csc(n1)CC(NC(=O)C1C(C)C1C)C(=O)N1CCCC(N1)C(=O)OCC(C)(C)C2 [Compound Z29, (1r,2R,3S)-N-((6^3S,4S,Z)-1^2-(5-(3-(4-cyano-4-(hydroxymethyl)piperidin-1-yl)prop-1-yn-1-yl)-2-((S)-1-methoxyethyl)pyridin-3-yl)-1^1-(methoxyethyl)-10,10-dimethyl-5,7-dioxo-6^1,6^2,6^3,6^4,6^5,6^6-hexahydro-1^1H-8-oxa-2(4,2)-thiazola-1(5,3)-indola-6(1,3)-pyridazinacycloundecaphane-4-yl)-2,3-dimethylcyclopropane-1-carboxamide]

Solubility at pH 7.4 (µg/mL) [1]: 158.5 µg/mL
SMILES: CCn1c(-c2cc(C#CCN3CCS(=O)(=O)CC3)cnc2[C@H](C)NC)c2c3cc(ccc31)-c1csc(n1)C[C@H](NC(=O)[C@H]1[C@H](C)[C@@H]1C)C(=O)N1CCC[C@H](N1)C(=O)OCC(C)(C)C2 (atropisomer, axis not shown; (Sa)) [Compound Z66-1, (1r,2R,3S)-N-((6^3S,4S,Z)-(Sa)-1^2-(5-(3-(1,1-dioxidothiomorpholino)prop-1-yn-1-yl)-2-((S)-1-(methylamino)ethyl)pyridin-3-yl)-11-ethyl-10,10-dimethyl-5,7-dioxo-6^1,6^2,6^3,6^4,6^5,6^6-hexahydro-1^1H-8-oxa-2(4,2)-thiazola-1(5,3)-indola-6(1,3)-pyridazinacycloundecaphane-4-yl)-2,3-dimethylcyclopropane-1-carboxamide]

IC50 (AsPC-1 cells; Homo sapiens, ASPC1, 120 h): 2.09 nM
IC50 (NCI-H441 cells; Homo sapiens, 120 h): 1.07 nM
IC50 (H441 p-ERK; Homo sapiens): 0.92 nM
IC50 (KRAS WT-cRAF; [2]): 75 nM
IC50 (AsPC-1 p-ERK; Homo sapiens, ASPC1): 2.65 nM
IC50 (KRAS G12V-cRAF; [3]): 14.7 nM
SMILES: COCCn1c(-c2cc(C#CCN3CCN(C(=O)CO)CC3)cnc2C(C)OC)c2c3cc(ccc31)-c1csc(n1)CC(NC(=O)C1C3COCC31)C(=O)N1CCCC(N1)C(=O)OCC(C)(C)C2 (atropisomer, axis not shown; (Ra)) [Compound Z31-1, (1R,5S,6r)-N-((6^3S,4S,Z)-(Ra)-1^2-(5-(3-(4-(2-hydroxyacetyl)piperazin-1-yl)prop-1-yn-1-yl)-2-((S)-1-methoxyethyl)pyridin-3-yl)-1^1-(methoxyethyl)-10,10-dimethyl-5,7-dioxo-6^1,6^2,6^3,6^4,6^5,6^6-hexahydro-1^1H-8-oxa-2(4,2)-thiazola-1(5,3)-indola-6(1,3)-pyridazinacycloundecaphane-4-yl)-3-oxabicyclo[3.1.0]hexane-6-carboxamide]

From patent publication EP4775582A1, “MACROCYCLIC COMPOUND AND ANTIBODY-DRUG CONJUGATE THEREOF” (Genfleet Therapeutics (Shanghai) Inc., priority 2023, dated 2025)
